Like-named read-outs stand apart in the source and are kept apart here.
Columns and labels:
C. neoformans strain H99 = assay: Murine cryptococcal meningitis model with ABT, dose-response study; format: in vivo, Cryptococcus neoformans; settings: control animals with daily 100-mg/kg ABT without an APX compound
Procedure: A dose-response study was performed with APX2096 and APX2097 to confirm the observed activity. In this study, QD doses of 7.5, 20, and 60 mg/kg were evaluated in conjunction with the administration of ABT. A 60-mg/kg dose QD without ABT was also evaluated as a control.
FIG 3 Dose-response of APX2096 and APX2097 in a murine model of cryptococcal meningitis in conjunction with ABT administration. ABT at 100 mg/kg was administered orally to male CD-1 mice at 2 h prior to each APX compound dose. Mice were injected with 4.8 × 10^4 CFU C. neoformans strain H99 per mouse via the lateral tail vein at time zero. Treatment with the APX compounds was initiated at 1 h postinfection by i.p. administration and continued for 7 days, with 100-mg/kg ABT being administered orally 2 h prior to each APX compound dose. The correction factors for prodrug potencies versus the potencies of the active moieties were similar enough such that the same factor (1.3) was used for all APX compounds. Fungal burden data were log10 transformed and evaluated using Kruskal-Wallis tests with Dunn's multiple-comparison test for post hoc analysis (Prism software, v5; GraphPad Software, Inc., San Diego, CA). […] A P value of ≤0.05 was considered statistically significant (*, P ≤ 0.05; **, P ≤ 0.01; ***, P ≤ 0.001). The 95% confidence interval (CI) is presented.
C. neoformans strain H99 was grown in yeast extract-peptone-dextrose broth at 30°C on a shaker (220 rpm) for 24 h, centrifuged (1,980 relative centrifugal force), and washed twice in phosphate-buffered saline (PBS), resuspended in PBS, and quantified by hemacytometric count. Male CD-1 mice were infected with ∼5 × 10^4 CFU per mouse via lateral tail vein injection of 100 μl. Mice were weighed, and treatment was begun within 1 h after infection. Treatments were administered daily for 7 days. Mice were weighed daily and observed for acute and chronic adverse symptoms. Mice were sacrificed on day 8, and the brain and left lung were homogenized and cultured for quantitative determination of the tissue burden (number of CFU per gram of tissue). Tissues were homogenized for 25 s in 1 ml phosphate-buffered saline using two 6.5-mm steel beads and a Mini-Beadbeater 16 apparatus (Biospec Products, Inc., Bartlesville, OK) and serially diluted in 10-fold steps. Aliquots (100 μl) of homogenate were plated and incubated for 3 to 7 days at 37°C. Fungal burden data were log10 transformed and evaluated using Kruskal-Wallis tests with Dunn's multiple-comparison test for post hoc analysis (Prism software, v5; GraphPad Software, Inc., San Diego, CA). A P value of ≤0.05 was considered statistically significant.

C. neoformans = assay: Broth microdilution susceptibility testing (CLSI M27-A3); format: cell-based, Cryptococcus neoformans; settings: for MIC: Cryptococcus neoformans
Text: (§1) C. neoformans strains H99, DUMC 118.00, and DUMC 158.03 and C. gattii strains R272 and RSA-MW-3515 were obtained from Duke University. C. albicans 90028, A. fumigatus MYA3626, C. neoformans 14116, C. neoformans 76484, and the pathogenic Cryptococcus reference strains panel (ATCC MP-11) were obtained from the American Type Culture Collection (ATCC; Manassas, VA, USA). The ATCC MP-11 panel consists of strains representing eight molecular types and three subtypes of C. neoformans and C. gattii.
(§2) To establish the antimicrobial activity of the APX001A analogs, broth microdilution susceptibility testing was performed according to Clinical and Laboratory Standards Institute (CLSI) guidelines M27-A3 ([47]) for yeasts and M38-A2 for molds ([48]). APX001A and analogs were first diluted in DMSO to obtain intermediate dilutions. These were further diluted in microtiter plates to obtain a final concentration of 2 to 0.002 μg/ml. One microliter of DMSO was added to the no-drug control wells. The solutions were mixed on a plate shaker for 10 min, and the plates were incubated at 35°C for 40 to 48 h (C. albicans, A. fumigatus) and 72 h (C. neoformans). The minimum concentration that led to a 50% reduction in fungal growth compared to that for the control (determined with the aid of a reading mirror) was determined as the MIC for C. albicans and C. neoformans. The minimum concentration that led to the shortening of hyphae compared to the hyphal growth in DMSO control wells was determined as the minimum effective concentration (MEC) for A. fumigatus (as read for the echinocandins). The use of the MIC and MEC endpoints for APX001A (formerly E1210) against yeasts and molds, respectively, has been described previously ([19][–][21]). For the cryptococcal synergy studies, APX001A and APX2020 MIC values were read at 50% inhibition.

C. gattii = assay: as above; format: cell-based; settings: Cryptococcus gattii
Text: as §1, §2

C. albicans 90028 = assay: as above; format: cell-based, Candida albicans; settings: Candida albicans, 90028; read-out: MIC, C. albicans 90028
Text: as §1, §2

[1] = tested on: FLC-susceptible and FLC-nonsusceptible/resistant strains of C. neoformans and C. gattii; assay: Broth microdilution, summary over the 18-strain Cryptococcus collection; format: cell-based, Cryptococcus neoformans and Cryptococcus gattii; settings: for MIC90 / MIC: 18 strains of C. neoformans and C. gattii; for MIC: read-out: Geometric mean MIC
Procedure: as §2, with “The minimum concentration that led to the shortening of hyphae compared to the hyphal growth in DMSO control wells was determined as the minimum effective concentration (MEC) for A. fumigatus (as read for the echinocandins).” left out

[2] = Single-dose mouse pharmacokinetics of prodrugs with or without ABT; format: in vivo; settings: for Ratio of AUC with ABT/AUC without ABT, i.p. dosing / Ratio of AUC with ABT/AUC without ABT, p.o. dosing: 26 mg/kg prodrug; for AUC: male, CD-1, mouse, plasma, 26 mg/kg
Procedure: The area under the curve (AUC) was calculated from time zero to the time of the last measurable concentration. The active metabolite concentrations in plasma (APX001A, APX2039, APX2020, and APX2041) were determined by liquid chromatography-tandem mass spectrometry. PK parameters were determined using Phoenix WinNonlin (v7.0) software and a noncompartmental model.

A. fumigatus MYA3626 = assay: Broth microdilution susceptibility testing for molds (CLSI M38-A2); format: cell-based; settings: Aspergillus fumigatus, MYA3626; read-out: MIC or MEC for A. fumigatus MYA3626
Text: as §1, §2

[3] = 72 h, Table 1, 50% growth inhibition for FLC, caspofungin and APX compounds, 100% for AMB, 72 h, read-out: MIC, C. neoformans H99
[4] = C. neoformans isolate 14116, read-out: MIC
[5] = C. neoformans isolate 76484, read-out: MIC
[6] = C. neoformans isolate DUMC 118.00 (FLC resistant), read-out: MIC
[7] = C. neoformans isolate DUMC 158.03 (FLC resistant), read-out: MIC
[8] = C. neoformans isolate MYA-4564, read-out: MIC
[9] = C. neoformans isolate MYA-4565, read-out: MIC
[10] = C. neoformans isolate MYA-4566, read-out: MIC
[11] = C. neoformans isolate MYA-4567, read-out: MIC
[12] = Table 2, C. neoformans isolate H99, read-out: MIC
[13] = C. gattii isolate MYA-4093, read-out: MIC
[14] = C. gattii isolate MYA-4094, read-out: MIC
[15] = C. gattii isolate MYA-4560 (first listing, r17), read-out: MIC
[16] = C. gattii isolate MYA-4560 (second listing, r21), read-out: MIC
[17] = C. gattii isolate MYA-4561, read-out: MIC
[18] = C. gattii isolate MYA-4562, read-out: MIC
[19] = C. gattii isolate MYA-4563, read-out: MIC
[20] = C. gattii isolate MYA-4877, read-out: MIC
[21] = C. gattii isolate RSA-MW-3615 (FLC resistant), read-out: MIC
[22] = Table 1, 50% growth inhibition for FLC, caspofungin and APX compounds, 100% for AMB, read-out: MIC, C. gattii WM276
[23] = intraperitoneal, AUC of analyte after 26 mg/kg prodrug, 100 mg/kg ABT orally 2 h before, read-out: Avg AUC resulting from 26-mg/kg dose, i.p. dosing + ABT
[24] = ip, AUC of analyte after 26 mg/kg of the corresponding prodrug, male CD-1 mice, no ABT, read-out: Avg AUC resulting from 26-mg/kg dose, i.p. dosing
[25] = po, AUC of analyte after 26 mg/kg prodrug, 100 mg/kg ABT orally 2 h before, read-out: Avg AUC resulting from 26-mg/kg dose, p.o. dosing + ABT
[26] = po, AUC of analyte in plasma after 26 mg/kg of the corresponding prodrug, male CD-1 mice, no ABT, read-out: Avg AUC resulting from 26-mg/kg dose, p.o. dosing

MIC (C. neoformans; [3]) [mg/L]	MIC (C. neoformans; [4]) [mg/L]	MIC (C. neoformans; [5]) [mg/L]	MIC (C. neoformans; [6]) [mg/L]	MIC (C. neoformans; [7]) [mg/L]	MIC (C. neoformans; [8]) [mg/L]	MIC (C. neoformans; [9]) [mg/L]	MIC (C. neoformans; [10]) [mg/L]	MIC (C. neoformans; [11]) [mg/L]	MIC (C. neoformans; [12]) [mg/L]	MIC (C. gattii; [13]) [mg/L]	MIC (C. gattii; [14]) [mg/L]	MIC (C. gattii; [15]) [mg/L]	MIC (C. gattii; [16]) [mg/L]	MIC (C. gattii; [17]) [mg/L]	MIC (C. gattii; [18]) [mg/L]	MIC (C. gattii; [19]) [mg/L]	MIC (C. gattii; [20]) [mg/L]	MIC (C. gattii; [21]) [mg/L]	MIC (C. gattii; [22]) [mg/L]	Compound	other results
–	–	–	–	–	–	–	–	–	–	–	–	–	–	–	–	–	–	–	–	Nn1nnc2ccccc21 [ABT, 1-Aminobenzotriazole, reference compound]	mean counts in brain tissue (C. neoformans strain H99): 8.07 ± 0.28 log10 CFU/g; mean counts in lung tissue (C. neoformans strain H99): 7.04 ± 0.34 log10 CFU/g
0.008	0.004	0.004	0.016	0.031	0.004	0.031	0.008	0.016	0.004	0.016	0.016	0.008	0.008	0.016	0.016	0.016	0.008	0.004	0.004	Nc1ncccc1-c1cc(Cc2ccc(Oc3cccc(F)n3)cc2)no1 [APX2039]	fold improved anti-C. neoformans H99 activity vs APX001A (C. neoformans; from MIC values of Table 1): 32 fold; MIC (C. albicans 90028): 0.031 mg/L; MIC90 [1]: 0.031 mg/L; MIC [1]: 0.01 mg/L; fold lower MIC values than APX001A versus Cryptococcus ([1]; Table 1 strains H99 and WM276): 32 fold; Ratio of AUC with ABT/AUC without ABT, i.p. dosing [2]: 8.3; Ratio of AUC with ABT/AUC without ABT, p.o. dosing [2]: 8.6; AUC [2, 23]: 97.2 ± 12.6 µg·h/mL; AUC [2, 24]: 11.8 ± 1.83 µg·h/mL; AUC [2, 25]: 91.3 ± 20.8 µg·h/mL; AUC [2, 26]: 10.7 ± 0.48 µg·h/mL; fold higher exposure than the three other compounds ([2]; oral administration of prodrug with ABT): approximately 2 fold; fold higher AUC than the other compounds ([2]; prodrugs administered i.p.): approximately 2 fold; MIC (A. fumigatus MYA3626): 0.125 mg/L
0.031	0.016	0.016	0.063	0.125	0.016	0.125	0.063	0.031	0.031	0.125	0.063	0.016	0.016	0.031	0.031	0.031	0.016	0.016	0.016	Nc1ncccc1-c1cc(Cc2ccc(OCc3ccccc3)nc2)no1 [APX2041]	MIC (C. albicans 90028): 0.031 mg/L; MIC90 [1]: 0.125 mg/L; MIC [1]: 0.034 mg/L; Ratio of AUC with ABT/AUC without ABT, i.p. dosing [2]: 15.5; Ratio of AUC with ABT/AUC without ABT, p.o. dosing [2]: 14.3; AUC [2, 23]: 72.6 ± 9.07 µg·h/mL; AUC [2, 24]: 4.68 ± 0.73 µg·h/mL; AUC [2, 25]: 49.9 ± 10.3 µg·h/mL; AUC [2, 26]: 3.49 ± 0.27 µg·h/mL; MIC (A. fumigatus MYA3626): 0.016 mg/L
